Assays:
[1] = tested on: noasagao (blue morningglory, Ipomoea indica); experiment: Experiment 9 foliage treatment: noasagao; type: in vivo; parameters: key: 5: completely killed; 4: seriously injured; 3: considerably injured; 2: somewhat injured; 1: slightly injured; 0: not injured (normally grown); details: foliage spray of wettable powder suspension, evaluated 4 weeks after treatment
Procedure: (§1) Upon seedling stage (two- or three-leaved stage) of ichibi (velvetleaf, Abutilon theophrasti), onamomi (heartleaf cocklebur, Xanthium strumarium) (4L stage), noasagao (blue morningglory, Ipomoea indica) and ooinutade (pale smartweed, Persicaria lapathifolia) which were grown on a cultivated soil put in pots of 1/8850 ares, a selected compound obtained in a manner analogous to Example 14, in suspended wettable powder, was sprayed to each plant. After that, the pots were kept in a glass chamber to allow each plant to grow, and after the lapse of 4 weeks from the treatment with the selected compounds the herbicidal effects were evaluated. The evaluation of the herbicidal effects was similarly conducted as that of Experiment 1.

[2] = tested on: ooinutade (pale smartweed, Persicaria lapathifolia); experiment: Experiment 9 foliage treatment: ooinutade; type: in vivo; parameters: key: 5: completely killed; 4: seriously injured; 3: considerably injured; 2: somewhat injured; 1: slightly injured; 0: not injured (normally grown); details: foliage spray of wettable powder suspension, evaluated 4 weeks after treatment
Procedure: as §1

[3] = tested on: onamomi (heartleaf cocklebur, Xanthium strumarium); experiment: Experiment 6 foliage treatment: onamomi; type: in vivo; parameters: key: 5: completely killed; 4: seriously injured; 3: considerably injured; 2: somewhat injured; 1: slightly injured; 0: not injured (normally grown); details: foliage spray of wettable powder suspension, evaluated 4 weeks after treatment
Procedure: as §1, with “(4 L” for “(4L”, “11,” for “14,”

[4] = tested on: ichibi (velvetleaf, Abutilon theophrasti); experiment: Experiment 3 foliage treatment: ichibi; type: in vivo; parameters: key: 5: completely killed; 4: seriously injured; 3: considerably injured; 2: somewhat injured; 1: slightly injured; 0: not injured (normally grown); details: 4 weeks after treatment
Procedure: as §1, with “to Example 8, in suspended” for “to Example 14, in suspended”, “conducted as to that of” for “conducted as that of”

[5] = tested on: ooinutade (pale smartweed, Persicaria lapathifolia); experiment: Experiment 6 foliage treatment: ooinutade; type: in vivo; parameters: key: 5: completely killed; 4: seriously injured; 3: considerably injured; 2: somewhat injured; 1: slightly injured; 0: not injured (normally grown); details: foliage spray of wettable powder suspension, evaluated 4 weeks after treatment
Procedure: as §1, with “(4 L” for “(4L”, “11,” for “14,”

[6] = tested on: ichibi (velvetleaf, Abutilon theophrasti); experiment: Experiment 9 foliage treatment: ichibi; type: in vivo; parameters: key: 5: completely killed; 4: seriously injured; 3: considerably injured; 2: somewhat injured; 1: slightly injured; 0: not injured (normally grown); details: foliage spray of wettable powder suspension, evaluated 4 weeks after treatment
Procedure: as §1

[7] = tested on: ooinutade (pale smartweed, Persicaria lapathifolia); experiment: Experiment 3 foliage treatment: ooinutade; type: in vivo; parameters: key: 5: completely killed; 4: seriously injured; 3: considerably injured; 2: somewhat injured; 1: slightly injured; 0: not injured (normally grown); details: 4 weeks after treatment
Procedure: as §1, with “to Example 8, in suspended” for “to Example 14, in suspended”, “conducted as to that of” for “conducted as that of”

[8] = tested on: noasagao (blue morningglory, Ipomoea indica); experiment: Experiment 3 foliage treatment: noasagao; type: in vivo; parameters: key: 5: completely killed; 4: seriously injured; 3: considerably injured; 2: somewhat injured; 1: slightly injured; 0: not injured (normally grown); details: 4 weeks after treatment
Procedure: as §1, with “to Example 8, in suspended” for “to Example 14, in suspended”, “conducted as to that of” for “conducted as that of”

[9] = tested on: ichibi (velvetleaf, Abutilon theophrasti); experiment: Experiment 6 foliage treatment: ichibi; type: in vivo; parameters: key: 5: completely killed; 4: seriously injured; 3: considerably injured; 2: somewhat injured; 1: slightly injured; 0: not injured (normally grown); details: foliage spray of wettable powder suspension, evaluated 4 weeks after treatment
Procedure: as §1, with “(4 L” for “(4L”, “11,” for “14,”

[10] = tested on: onamomi (heartleaf cocklebur, Xanthium strumarium); experiment: Experiment 9 foliage treatment: onamomi; type: in vivo; parameters: key: 5: completely killed; 4: seriously injured; 3: considerably injured; 2: somewhat injured; 1: slightly injured; 0: not injured (normally grown); details: foliage spray of wettable powder suspension, evaluated 4 weeks after treatment
Procedure: as §1

[11] = tested on: onamomi (heartleaf cocklebur, Xanthium strumarium); experiment: Experiment 3 foliage treatment: onamomi; type: in vivo; parameters: key: 5: completely killed; 4: seriously injured; 3: considerably injured; 2: somewhat injured; 1: slightly injured; 0: not injured (normally grown); details: 4 weeks after treatment
Procedure: as §1, with “to Example 8, in suspended” for “to Example 14, in suspended”, “conducted as to that of” for “conducted as that of”

[12] = tested on: noasagao (blue morningglory, Ipomoea indica); experiment: Experiment 6 foliage treatment: noasagao; type: in vivo; parameters: key: 5: completely killed; 4: seriously injured; 3: considerably injured; 2: somewhat injured; 1: slightly injured; 0: not injured (normally grown); details: foliage spray of wettable powder suspension, evaluated 4 weeks after treatment
Procedure: as §1, with “(4 L” for “(4L”, “11,” for “14,”

CCc1cnc(C2=NC(C)(C(C)C)C(=O)N2)c(C(=O)O)c1 (stereo not shown) [Comparative agentC, Pursuit, reference compound]
Herbicidal Effet noasagao ([1]; 4 g/10a): 3 | Herbicidal Effet noasagao ([1]; 8 g/10a): 4 | Herbicidal Effet ooinutade ([2]; 4 g/10a): 5 | Herbicidal Effet ooinutade ([2]; 8 g/10a): 5 | Herbicidal Effect onamomi ([3]; 4 g/10a): 4 | Herbicidal Effect onamomi ([3]; 8 g/10a): 5 | Herbicidal Effect ichibi ([4]; 4 g/10a): 3 | Herbicidal Effect ichibi ([4]; 8 g/10a): 3 | Herbicidal Effect ooinutade ([5]; 4 g/10a): 5 | Herbicidal Effect ooinutade ([5]; 8 g/10a): 5 | Herbicidal Effet ichibi ([6]; 4 g/10a): 3 | Herbicidal Effet ichibi ([6]; 8 g/10a): 3 | Herbicidal Effect ooinutade ([7]; 4 g/10a): 5 | Herbicidal Effect ooinutade ([7]; 8 g/10a): 5 | Herbicidal Effect noasagao ([8]; 4 g/10a): 3 | Herbicidal Effect noasagao ([8]; 8 g/10a): 4 | Herbicidal Effect ichibi ([9]; 4 g/10a): 3 | Herbicidal Effect ichibi ([9]; 8 g/10a): 3 | Herbicidal Effet onamomi ([10]; 4 g/10a): 4 | Herbicidal Effet onamomi ([10]; 8 g/10a): 5 | Herbicidal Effect onamomi ([11]; 4 g/10a): 4 | Herbicidal Effect onamomi ([11]; 8 g/10a): 5 | Herbicidal Effect noasagao ([12]; 4 g/10a): 3 | Herbicidal Effect noasagao ([12]; 8 g/10a): 4

COC(=O)Cc1sc(F)c(N(C(C)=O)C(=O)C2=C(C(=O)OC)CCCC2)c1Cl [compound 11, N-acetyl-N-(4-chloro-2-fluoro-5-methoxycarbonylmethylthiophenyl)-3,4,5,6-tetrahydrophthalamic acid methyl ester]
melting point: 124 to 124.5 °C
